According to US20040122080A1, “Synergist combinations of retinoid receptor ligands and selected cytotoxic agents for treatment of cancer” (priority 2004, published 2004):

What was measured:
MCF7 cells = test: Anchorage-dependent colony formation assay; assay type: cell-based, human; settings: for colony formation and morphology: 6 days exposure, crystal violet
Method: (§1) To determine effects of RAR agonists on anchorage-dependent colony size, number and morphology, MCF7 cells were plated in 6 well plates (500 cells/well) in DMEM supplemented with 10% FBS and grown for 5 days. The medium was then removed and the compounds were added to the medium supplemented with 5% of charcoal stripped FBS (HyClone). The compound containing medium was renewed after 3 days and cultures were allowed to grow an additional 3 days. After 6 days exposure to compounds, colonies were stained with crystal violet. Colonies were counted to quantify colony area and number and photographed under light microscopy to assess effects on colony size and morphology. The results presented are representative of two independent experiments. Immunoblotting MCF-7 cellular lysates were prepared for Western blotting in accordance with procedures described by Sambrook et al. (MOLECULAR CLONING: A LABORATORY MANUAL, 2nd Ed.; Cold Spring Harbor Laboratory Press, Cold Spring Harbor, N. Y. (1989)). Cell lysates were prepared by adding 200 μl of lysis buffer (Tris-HCl, pH 6.8, 20 mM, EDTA 1 mM, NP-40 0.5%) containing a protease inhibitor cocktail (Roche) to each well of 6 well plates. The lysates were then cleared by centrifugation at 10,000 rpm, 4EC for 5 minutes and supernatants were adjusted with Laemmli sample buffer and processed by 10 or 15% SDS-polyacrylamide gel electrophoresis (PAGE), followed by transfer to nitrocellulose membranes (Biorad). Membranes were processed by standard methods and incubated with primary antibodies for 1 hour at room temperature or overnight at 4EC. Bound antibody was visualized using a goat anti-IgG secondary antibody conjugated to HRP and a chemiluminescent detection system (ECL, Amersham Pharmacia Biotech).

SQCC-Y1 = test: Mitogenic assay, growth inhibition ([3H]-thymidine incorporation), retinoid/paclitaxel co-treatment; assay type: cell-based, human
Method: (§2) Cellular proliferation was quantified using [^3H] thymidine incorporation. Cells were plated in 96 well plates in media containing 10% fetal bovine serum (FBS) and allowed to adhere overnight. Cell medium was removed the following day and the indicated compounds were added to fresh medium supplemented with 10% of charcoal stripped FBS (HyClone). Compound-containing medium was renewed after 3 days exposure. After 6 day treatment, 4 μCi/ml of [^3H]thymidine (NEN Life Science Products) were added to each well for 2 to 4 hours. The cells were then trypsinized and harvested on GF/B glass fiber filters. [^3H]thymidine incorporated into the DNA was measured in a scintillation Topcount counter (Packard). The results were expressed as percent inhibition compared to the DMSO vehicle.

OVCAR3 = test: as above; assay type: cell-based, human
Method: as §2

MCF7 = test: as above; assay type: cell-based, human
Method: as §2

[1] = test system: AP1 transcriptional activity; test: AP1 reporter assay, MCF7 cells with (AP1)5x-tk-Luc; assay type: cell-based, human
Method: AP1 transcriptional activity was assessed in MCF7 cells stably transfected with (AP1)5x-tk-Luc reporter gene (IGBMC, France). (AP1)5x corresponds to the collagenase gene AP1 response element repeated 5 times in tandem, tk is the minimal thymidine kinase promoter, and Luc the coding sequence of the luciferase gene. MCF7 cells were plated in 12-well plates at a density of 400,000 cells per well in DMEM supplemented with 10% FBS and allowed to adhere overnight. The next day, the medium was removed, the cells were washed with PBS and supplemented with DMEM medium containing 0.5% of charcoal stripped FBS (HyClone). […] The luciferase activity was measured by using Luc-lite system from Packard according to manufacturer's recommendations. Results are expressed as percent activity compared to PMA (10 nM) which was assigned as 100% activity. The data presented are the mean ± sem (standard error of the mean)of 3 independent experiments.

tubulin = test: Tubulin polymerization assay in MCF7 cells; assay type: cell-based, human; settings: single agent, Western blotting of soluble and polymerized tubulin
Method: The effects of retinoid and paclitaxel exposure on free and polymerized tubulin levels were determined in accordance with procedures described by Giannakakou et al. (J. Biol. Chem. 1997 272:17118-17125). MCF7 cells were plated in 6 well plates in DMEM supplemented with 10% FBS and allowed to adhere overnight. Cell medium was removed the following day and the indicated compounds were added to fresh medium supplemented with 5% of charcoal stripped FBS (HyClone). The cells were grown for 3 days in the presence of the retinoids before paclitaxel was added for 1 hour. Soluble and polymerized tubulin were extracted and respective levels were assessed by Western blotting as described above using anti-(tubulin antibodies (n=2).

[2] = test system: Jun N-terminal Kinase (JNK); test: Jun N-terminal Kinase assay (immunoprecipitated JNK from MCF7 cells); assay type: cell-based, human
Method: Activity of JNK was measured in accordance with procedures described by Coso et al. (Cell 1995 81:1137-1146) with minor modifications. MCF-7 cells were plated in 6-well plates in DMEM supplemented with 10% FBS and allowed to adhere overnight. The next day, the cells were switched to DMEM supplemented with 0.5% charcoal-stripped FBS (HyClone) and 100 nM of indicated retinoids or 0.1% DMSO was added to the cells for 24 hours before an additional 2 to 3 hours incubation in the presence of 1 μM of paclitaxel. Cell lysates was prepared from each well as described and cleared by centrifugation. JNK was immunoprecipitated from each lysate by incubating overnight at 4° C. with 1 μg of anti-hJNK (Pharmingen) and 25 μl of protein G agarose beads (Gibco-BRL) previously washed with the lysis buffer. Immune complexes were pelleted by centrifugation 2 minutes at 10,000 rpm 4° C. and washed 3 times with PBS containing 1% NP40 and 2 mM of Na3VO4, once with 100 mM Tris-HCl pH7.5, 0.5 mM LiCl and once with Kinase Reaction Buffer (KRB: 12.5 mM MOPS pH7.5, 12.5 mM β-glycerolphosphate, 7.5 mM MgCl2, 0.5 mM EGTA, 0.5 mM NaF, 0.5 mM Na3VO4). […] The kinase reaction was terminated by adding 10 μl of Laemmli sample buffer. resolved by 10% SDS-PAGE and phosphorylated GST-c-Jun visualized by autoradiography and quantified by densitometry. […]

Bcl-2 = Bcl-2 expression and phosphorylation (immunoblotting); assay type: cell-based, human; settings: MCF7; single agent
Method: as §1, with “The lysates were then cleared by centrifugation at 10,000 rpm, 4EC for 5 minutes and supernatants were adjusted with Laemmli sample buffer and processed by 10 or 15% SDS-polyacrylamide gel electrophoresis (PAGE), followed by transfer to nitrocellulose membranes (Biorad). Membranes were processed by standard methods and incubated with primary antibodies for 1 hour at room temperature or overnight at 4EC. Bound antibody was visualized using a goat anti-IgG secondary antibody conjugated to HRP and a chemiluminescent detection system (ECL, Amersham Pharmacia Biotech).” left out

[3] = test system: MCF7, OVCAR3 and SQCC-Y1 cells; test: Growth inhibition, statements across the three human tumor cell lines; assay type: cell-based; settings: co-treatment with paclitaxel, Table 1
Method: as §2

[4] = Homo sapiens, 144 h, maximal inhibition, paclitaxel co-treated with the labelled retinoid (none = paclitaxel alone), read-out: Efficacy (percent inhibition compared with DMSO)

**Q.** `CC1=C(/C=C/C(C)=C/C=C/C(C)=C/C(=O)O)C(C)(C)CCC1` [ATRA, all trans retinoic acid] was tested. Which “colony formation and morphology” value (MCF7 cells; MCF7) did it give?
**A.** impaired colony formation

**Q.** And the “apoptosis in treated colonies” value (MCF7 cells; MCF7 colonies)?
**A.** high level of apoptosis

**Q.** Which results are given for `CC(=O)O[C@H]1C(=O)[C@@]2(C)[C@H]([C@H](OC(=O)c3ccccc3)[C@]3(O)C[C@H](OC(=O)[C@H](O)[C@@H](NC(=O)c4ccccc4)c4ccccc4)C(C)=C1C3(C)C)[C@]1(OC(C)=O)CO[C@@H]1C[C@@H]2O` [paclitaxel]?
**A.** IC50 (SQCC-Y1; Homo sapiens, 144 h, 6 day treatment, paclitaxel co-treated with the labelled retinoid (none = paclitaxel alone), mean of 2 to 5 experiments): 160 pM; Emax (SQCC-Y1; [4]): 100%; IC50 (OVCAR3; Homo sapiens, OVCAR-3, 144 h, 6 day treatment, paclitaxel co-treated with the labelled retinoid (none = paclitaxel alone), mean of 2 to 5 experiments): 600 pM; Emax (OVCAR3; Homo sapiens, OVCAR-3, 144 h, maximal inhibition, paclitaxel co-treated with the labelled retinoid (none = paclitaxel alone), read-out: Efficacy (percent inhibition compared with DMSO)): 99%; Emax (MCF7; [4]): 100%; enhancement of PMA-induced AP1 transcriptional activity ([1]; single agent, paclitaxel 1 μM, PMA 10 nM): 20%; polymerization of tubulin (tubulin): dose-dependent polymerization of tubulin; increase in JNK activity ([2]; single agent, paclitaxel 1 μM 2 to 3 hours, retinoids 100 nM 24 hours): 2.5 fold; phosphorylation of Bcl-2 (Bcl-2): dose-dependent increase

**Q.** Which “effect on paclitaxel/PMA-induced AP1 activity” value ([1]; combination with paclitaxel) does the source give for `Cc1cccc(C2=CC(=O)C(C)(C)c3cc4ccc(-c5ccc(C(=O)O)cc5)cc4cc32)c1` [Formula II, 4-(5,6-dihydro-5,5-dimethyl-6-oxo-8-(3-methyl-phenyl)-anthracen-2-yl)-benzoic acid] here?
**A.** did enhance the effects of paclitaxel/PMA or AP1 activity

**Q.** What about the “effect on paclitaxel-induced JNK activity” value ([2]; combination with paclitaxel) of the same compound?
**A.** did not modify paclitaxel-induced JNK activity

**Q.** And the “effect on the effective dose of paclitaxel required to induce cytotoxicity” value [3]?
**A.** lowered the effective dose of paclitaxel required to induce cytotoxicity

**Q.** What about the “colony formation and morphology” value (MCF7 cells; MCF7) of the same compound?
**A.** strongly impaired colony formation

**Q.** And the “sensitivity of the cells to paclitaxel” value (MCF7 cells; MCF7, pre-treatment for three days)?
**A.** significantly enhanced the sensitivity of the cells to paclitaxel

**Q.** Which results are given for `CC(C)(C)/C=C\C1=CCC(C)(C)c2ccc(/C=C/c3ccc(C(=O)O)cc3)cc21` [Formula Ia]?
**A.** decrease of the IC50 of paclitaxel in the presence of the retinoid (SQCC-Y1): 32 fold; decrease of the IC50 of paclitaxel in the presence of the retinoid (OVCAR3): 15 fold; decrease of the IC50 of paclitaxel in the presence of the retinoid (MCF7): 8 fold; inhibition at 0.05 µM ([1]; Homo sapiens, MCF7, at 50 nM, PMA 10 nM, 6 hours, read-out: inhibition of PMA-induced AP1 reporter activity, maximum): 30 to 45%; effect on the effective dose of paclitaxel required to induce cytotoxicity [3]: dramatically lowered the effective dose of paclitaxel required to induce cytotoxicity; colony formation and morphology (MCF7 cells; MCF7): dramatic change in the morphology of both the colonies and the cells
